The target of test [1] is T1, PDZ domain of PICK1 (Rattus norvegicus, UniProt Q9EP80).
T1 construct: The entire coding region of rat PICK1 (residues 2-416); GST (N, cleaved yes); made in house; host or cells: E. coli BL21(DE3) pLysS
The experiment in a line: Fluorescence polarization competition binding to PICK1 (Oregon Green-labeled DAT peptide tracer). Particulars: for Ki: competition with DAT13 OrG tracer 40 nM, fixed subsaturating PICK1, 15 min incubation, means of three independent experiments, read-out: Ki (μM) [SE interval]; for potency in displacing the fluorescently tagged tracer (in words): unlabeled peptide titrated against fixed PICK1 and labeled DAT peptide. The text has this: (§1) The entire coding region of rat PICK1 (residues 2-416) is amplified from a pCINEO vector by PCR using pfu polymerase according to the instructions by the manufacturer (Stratagene, La Jolla, Calif.). The primers used introduce a 5′ restriction site for MunI and 3′ restriction site for AvrII. The PCR fragment is cleaved with MunI and AvrII and cloned into the reading frame of the pET41a vector (Novagen, Madison, Wis.) producing an N-terminally glutathione-S-transferase (GST) fusion of PICK1. The GST-PICK1 fusion was expressed in E. coli BL21(DE3) pLysS (Novagen). The transformed bacteria are grown to OD600 0.6 and expression of the fusion protein is induced with isopropyl-β-D1-thiogalactopyranoside (105 μM) overnight at 30° C. The bacteria are lysed by freezing and thawing in TBS buffer containing [50 mM Tris pH 7.4, 125 mM NaCl, 1% TX-100, 20 μg/mL DNAse I, 1 mM DTT (Sigma)]. The lysate is cleared by centrifugation (rotor SS-34, 18000 rpm, 48000×g, 30 min). The supernatant is incubated with glutathione-sepharose beads (Amersham Biosciences) under slow rotation for 90 minutes at 4° C. The beads are pelleted at 3500 g for 5 minutes and washed in TBS buffer containing [50 mM Tris pH 7.4, 125 mM NaCl, 0.1% TX-100, 1 mM DTT] by three batch washes. The protein is separated from the GST domain by cleavage with thrombin protease (Novagen) in the above wash buffer at 4° C. overnight. Samples of 10 μl are taken from the protein solution for determination of protein concentration and for analysis by SDS-PAGE. Protein determinations are performed using the BCA Protein Assay Reagent kit (Pierce Biotechnology, Inc, Rockford, Ill.) according to manufactures protocol using bovine serum albumin as standard. Gels are stained with GelCode Blue Stain Reagent (Pierce Biotechnology) in order to inspect size, integrity and purity of the protein (Madsen et al., JBC, 280, 20539-48, 2005).
This assay is used to screen for compounds binding to the PDZ binding groove in PICK1. The assay is based on the predicted decrease in rotational diffusion of a fluorescently labeled peptide upon its binding to a larger protein. The decrease in rotational diffusion upon binding of a fluorescent labeled peptide to PICK1 can be detected as an increase in fluorescence polarization (FP). Binding of a small-molecule compound to the PDZ binding groove can be detected by its ability to displace the fluorescently labeled peptide resulting in a decreased in FP (Madsen et al., JBC, 280, 20539-48, 2005).
To perform the assay, compounds are loaded (10 μl of each) in microtiter-plates (88 compounds per 96 well plate) (Corning) at a concentration of 1 mM in DMSO. To each well is added 90 μl buffer containing Tris base (50 mM), NaCl (125 mM), TX-100 (0.1%), PICK1 (0.45 μM) and fluorescently labeled peptide. This peptide corresponds to the C-terminus of a protein that binds to the PICK1 PDZ domain. For example, the peptide can correspond to the last 13 C-terminal residues of the DAT, of protein kinase Cα or of the GluR2 subunit of the AMPA reaceptor. The peptide can be labeled with any fluorophore. For example it can be labeled with a sulfhydryl-reactive derivative of Oregon Green via a cysteine introduced in the peptide. The peptide is used in a concentration of about 40 nM. The final concentration of the compounds in the initial screen is 100 μM. After approximately 15 min of incubation at […] the plates are analyzed in a Chameleon plate-reader (HIDEX) in the FP mode using a 488 nm excitation filter and a 535 nm long pass emission filter. Each measurement is an average of 100 flashes and is carried out four times. FP is calculated according to the equation FP=(IV−g*IH)/(IV+g*IH). As negative and positive controls, respectively, pure DMSO and DMSO with unlabeled DAT peptide (20 μM final conc.) are measured in parallel. All compounds are tested twice on separate plates.

The target of test [2] is T2, PICK1 (Rattus norvegicus, UniProt Q9EP80).
T2 construct: The entire coding region of rat PICK1 (residues 2-416); GST (N, cleaved yes); made in house; host or cells: E. coli BL21(DE3) pLysS
T2 sequence (Q9EP80 2-416): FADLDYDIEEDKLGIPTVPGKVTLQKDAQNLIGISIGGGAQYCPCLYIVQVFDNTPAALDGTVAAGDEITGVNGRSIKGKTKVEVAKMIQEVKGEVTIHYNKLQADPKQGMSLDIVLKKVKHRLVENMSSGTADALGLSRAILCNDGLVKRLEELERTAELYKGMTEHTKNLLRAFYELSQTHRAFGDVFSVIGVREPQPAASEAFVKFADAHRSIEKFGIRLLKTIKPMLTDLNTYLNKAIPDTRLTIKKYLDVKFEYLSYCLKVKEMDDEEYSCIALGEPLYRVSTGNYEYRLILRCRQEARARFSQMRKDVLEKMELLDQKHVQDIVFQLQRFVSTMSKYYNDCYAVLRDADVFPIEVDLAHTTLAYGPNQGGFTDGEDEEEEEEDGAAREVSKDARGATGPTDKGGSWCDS
The experiment in a line: Fluorescence polarization saturation binding of fluorescently labeled peptides to PICK1.
Text: as §1, with “Samples of 10 μl are taken from the protein solution for determination of protein concentration and for analysis by SDS-PAGE. Protein determinations are performed using the BCA Protein Assay Reagent kit (Pierce Biotechnology, Inc, Rockford, Ill.) according to manufactures protocol using bovine serum albumin as standard. Gels are stained with GelCode Blue Stain Reagent (Pierce Biotechnology) in order to inspect size, integrity and purity of the protein (Madsen et al., JBC, 280, 20539-48, 2005).” left out

In test [3] the target is T3, interaction between PICK1 and a DAT-peptide fused to GST (Rattus norvegicus, UniProt Q9EP80).
T3 construct: The entire coding region of rat PICK1 (residues 2-416); GST (N, cleaved yes); made in house; host or cells: E. coli BL21(DE3) pLysS
T3 sequence (Q9EP80 2-416): as above
In words: GST-DAT pull-down assay of PICK1. It counts as binding. Particulars: PICK1 band on SDS-PAGE compared with control pull-down. The method, then:
To verify binding of active compounds identified in the FP screen, a biochemical pulldown assay can be employed.
A fusion between GST and the 24 C-terminal amino acids of the dopamine transporter (GST DAT C24) is expressed in BL21(DE3)pLysS (Novagen) using the pET41a vector (Novagen, Madison, Wis.) and purified as described for PICK1 but without digestion with thrombin.
5 μl dry volume of glutathione-coated sepharose beads (Pharmacia) with bound GST alone or GST DAT C24 are suspended in 200 μl TBS buffer containing as follows [50 mM Tris pH 7.4, 125 mM NaCl, 0.1% TX-100, 1 mM DTT (Sigma) and PICK1 0.5 μM]. The compounds to be tested are added in DMSO to a final concentration of 200 μM (2% DMSO final concentrtaion). The last 11 amino acids of the C-terminus of the GLT1b glutamate transporter (60 μM final) and pure DMSO (2%) can be used as a positive and negative control, respectively.
The samples are incubated at 4° C. under slow rotation for 30 min. The beads are centrifuged at 4000 g for 5 min and subsequently washed in TBS buffer and recentrifuged. The beads containing bound protein are eluted in loading buffer and analyzed by 12% SDS-PAGE and proteins are stained with Gelcode blue stain reagent (Pierce). Active compounds i.e. a blocked pull-down are recognized by a reduced PICK1 band on the SDS-PAGE gel compared to the control pull-down. […]

The target of test [4] is T4, PICK1 GluR2 interaction (Rattus norvegicus, UniProt Q9EP80).
T4 construct: expressed in transfected cells; host or cells: COS7 cells, transient transfection
T4 sequence (Q9EP80 whole entry): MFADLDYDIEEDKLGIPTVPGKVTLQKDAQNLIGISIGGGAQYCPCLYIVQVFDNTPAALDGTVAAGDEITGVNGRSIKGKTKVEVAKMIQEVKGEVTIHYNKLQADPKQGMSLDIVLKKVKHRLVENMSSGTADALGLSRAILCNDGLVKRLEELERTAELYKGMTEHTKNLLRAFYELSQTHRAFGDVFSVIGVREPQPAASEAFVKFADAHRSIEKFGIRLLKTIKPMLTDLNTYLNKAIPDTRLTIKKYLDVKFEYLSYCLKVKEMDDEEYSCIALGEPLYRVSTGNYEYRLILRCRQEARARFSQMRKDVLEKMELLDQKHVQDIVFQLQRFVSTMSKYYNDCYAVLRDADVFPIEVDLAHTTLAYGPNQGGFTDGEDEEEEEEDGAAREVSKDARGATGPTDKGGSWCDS
The experiment in a line: FRET between eCFP-GluR2 C29 and eYFP-PICK1 in COS7 cells. It counts as cell-based. Particulars: compound added 20 min prior to image acquisition. The method, then:
To determine whether a compound is able to block binding of a PD ligand, such as the c-terminus of the AMPA receptor GluR2 subunit, to the PICK1 PDZ domain in a cellular system a Fluorescent Resonance Energy Transfer (FRET) assay can be employed. PICK1 is fused to eYFP (eYFP-PICK1) and the C-terminal 29 residues of the AMPA receptor subunit GluR2 is fused to eCFP (eCFP-GluR2 C29). As a control for specificity of the FRET signal an alanine is added to the C-terminal 29 residues of GluR2 (eCFP-GluR2 C29+A) to disrupt the PDZ interaction. […]
Fluorescence resonance energy transfer (FRET; see Schmid and Sitte, 2003) is measured with an epi-fluorescence microscope (Carl Zeiss TM210, Germany) using the “three-filter method” according to Xia and Liu (2001). […]
Media are replaced by Krebs-HBS buffer (10 mM HEPES/120 mM NaCl/3 mM KCl/2 mM CaCl2/2 mM MgCl2), and images are taken using a 63× oil objective and a LUDL filter wheel that allows for rapid exchange of filters (less than 100 ms). The system is equipped with the following fluorescence filters: CFP filter (ICFP; exc.: 436 nm, dichr.: 455 nm, em.: 480 nm), YFP filter (IYFP; exc.: 500 nm, dichr.: 515 nm, em.: 535 nm) and FRET filter (IFRET: excitation=436 nm, dichroic mirror=455 nm, emission=535 nm). […] Background fluorescence is subtracted from all images and fluorescence intensity was measured in cytosolic regions in all images. […]

Entries after “also recorded” stand apart in the source; their conditions may differ. Peptide text beside a SMILES is read from it.

T1 sequence (Q9EP80 2-416): as the sequence (Q9EP80 2-416) above

With `CCOc1cc(Cl)c(Cl)c(C=O)c1O` [d, 2,3-Dichloro-5-ethoxy-6-hydroxy-benzaldehyde], the Ki in test [1] was found to be 67 µM. Take “PKCα peptide: peptide corresponding to the 13 C-terminal residues of PKCα, type I PDZ binding sequence -QSAV (NPQFVHPILQSAV; UniProt P17252 660-672, looked up, fragment)”: the “fold lower apparent affinity than the DAT peptide” value in test [2] is on record as roughly 10 fold. In the case of `CCOC(=O)NC(=O)/C(C#N)=C\c1ccc(Cl)c(Cl)c1` [j, [(Z)-2-Cyano-3-(3,4-dichlorophenyl)-acryloyl]-carbamic acid ethyl ester], in test [1], the Ki was found to be 40 µM. Also, in test [3], the “pull-down of PICK1 by GST-DAT (in words)” value is given as “inhibition; also recorded: inhibited”. For the same compound, the “FRET between eYFP-PICK1 and eCFP-GluR2 C29 (in words)” value in test [4] (compared to vehicle (1% DMSO)) is reported as “specifically reduced; also recorded: significantly reduced”. In test [4] (specificity control construct), the “FRET between eYFP-PICK1 and eCFP-GluR2 C29+A (in words)” value is “no effect”. Consider “β2 AR peptide: peptide corresponding to the 13 C-terminal residues of the β2 AR, type I PDZ binding sequence -DSLL; specificity control (SQGRNCSTNDSLL; UniProt P07550 401-413, looked up, fragment) [reference compound]”, for which the “potency in displacing the fluorescently tagged tracer (in words)” value in test [1] was “much less potent”. In addition, the “apparent affinity (in words)” value in test [2] (fluorescently labeled peptide) is on record as “very low apparent affinity”. On to `CCOC(=O)c1ccc(-c2ccc(/C=C3/C(=O)NN(c4ccc(C)c(Cl)c4)C3=O)o2)cc1` [t, 4-{5-[1-(3-Chloro-4-methyl-phenyl)-3,5-dioxo-pyrazolidin-(4Z)-ylidenemethyl]-furan-2-yl}-benzoic acid ethyl ester], for which the Ki in test [1] was 13.7 µM.

With `O=C1C(=Cc2cc(Br)ccc2OCc2ccccc2)C(=O)c2ccccc21` [v, 2-(2-Benzyloxy-5-bromo-benzylidene)-indan-1,3-dione], in test [1], the Ki was determined as 7.7 µM. The same measure, in the same setting: as for `O=C1C(=O)c2cc([N+](=O)[O-])ccc2-c2ccccc21` [w, 2-Nitro-phenanthrene-9,10-dione], the figure is 4.4 µM; as for `CC(C)(C)c1ccc(O)c(/N=C/c2cc(N=Nc3ccc(Cl)cc3)ccc2O)c1` [q, 4-tert-Butyl-2-{[1-[5-(4-chloro-phenylazo)-2-hydroxy-phenyl]-meth-(E)-ylidene]-amino}-phenol], 19.1 µM.

On to `CC(C)C[C@H](NC(=O)[C@H](Cc1c[nH]c2ccccc12)NC(=O)[C@H](Cc1c[nH]cn1)NC(=O)[C@H](CCCNC(=N)N)NC(=O)[C@H](CC(C)C)NC(=O)[C@@H](NC(=O)[C@H](Cc1ccccc1)NC(=O)[C@H](CCC(N)=O)NC(=O)[C@H](CCCNC(=N)N)NC(=O)[C@@H](NC(=O)[C@@H](N)CCC(=O)O)C(C)C)[C@@H](C)O)C(=O)N[C@@H](CCCCN)C(=O)N[C@H](C(=O)O)C(C)C` [DAT peptide, reference compound] (H-EVRQFTLRHWLKV-OH; N-terminus and C-terminus assumed), for which the “potency in displacing the fluorescently tagged tracer (in words)” value in test [1] is on record as “more than one order of magnitude more potent”.

(Values after US20100249165A1, “PDZ DOMAIN MODULATORS” (University of Copenhagen, priority 2007, published 2010).)
